Measurements as given in ChEMBL document CHEMBL3232708, “Discovery of a tetracyclic quinoxaline derivative as a potent and orally active multifunctional drug candidate for the treatment of neuropsychiatric and neurological disorders” (J Med Chem, 2014).
Active and inactive are the calls of the source. No cut-off for these calls is given here.

Legend:
[1] = molecular target: 5-hydroxytryptamine receptor 2A (Homo sapiens, UniProt P28223); experiment: biochemical; type: cell-based, HEK293E
Description: Displacement of [125]DOI from human recombinant full length 5HT2A receptor expressed in HEK293E cells

D(2) dopamine receptor = D(2) dopamine receptor (Rattus norvegicus, UniProt P61169); experiment: biochemical
Description: Displacement of [3H]-N-methylspiperone from rat recombinant dopamine D2 short receptor expressed in CHO cells

[2] = molecular target: T1, 5-hydroxytryptamine receptor 2C (Homo sapiens, UniProt P28335); experiment: biochemical
T1 sequence (P28335 whole entry): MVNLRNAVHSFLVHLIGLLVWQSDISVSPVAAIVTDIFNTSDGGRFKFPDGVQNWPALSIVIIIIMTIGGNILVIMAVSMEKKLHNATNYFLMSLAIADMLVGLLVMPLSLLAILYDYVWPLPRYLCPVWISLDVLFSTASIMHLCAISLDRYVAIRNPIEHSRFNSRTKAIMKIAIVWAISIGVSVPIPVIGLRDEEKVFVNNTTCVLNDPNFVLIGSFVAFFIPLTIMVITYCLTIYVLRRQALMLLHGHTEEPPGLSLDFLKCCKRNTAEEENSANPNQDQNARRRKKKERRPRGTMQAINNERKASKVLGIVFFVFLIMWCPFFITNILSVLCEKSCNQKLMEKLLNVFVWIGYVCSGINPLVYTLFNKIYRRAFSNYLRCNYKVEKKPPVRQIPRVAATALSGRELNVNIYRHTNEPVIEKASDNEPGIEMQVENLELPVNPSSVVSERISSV
Description: Displacement of [125]DOI from human recombinant full length 5HT2C receptor expressed in HEK293E cells

[3] = molecular target: Sodium-dependent serotonin transporter (Homo sapiens, UniProt P31645); experiment: Displacement of [3H]-N-methyl-citalopram from SERT in human platelets at 100 nM after 60 mins by liquid scintillation counting analysis
Rattus norvegicus [4] = experiment: Inhibition of conditioned avoidance response in po dosed Sprague-Dawley rat model after 2 hrs by electric foot shock test; type: functional
[5] = molecular target: D(1A) dopamine receptor (Homo sapiens) (UniProt P21728); experiment: Inhibition of human dopamine D1 receptor at 100 nM
[6] = molecular target: T2, Alpha-1B adrenergic receptor (Homo sapiens) (UniProt P35368); experiment: Inhibition of adrenergic alpha1B receptor (unknown origin) at 100 nM
T2 sequence (whole entry): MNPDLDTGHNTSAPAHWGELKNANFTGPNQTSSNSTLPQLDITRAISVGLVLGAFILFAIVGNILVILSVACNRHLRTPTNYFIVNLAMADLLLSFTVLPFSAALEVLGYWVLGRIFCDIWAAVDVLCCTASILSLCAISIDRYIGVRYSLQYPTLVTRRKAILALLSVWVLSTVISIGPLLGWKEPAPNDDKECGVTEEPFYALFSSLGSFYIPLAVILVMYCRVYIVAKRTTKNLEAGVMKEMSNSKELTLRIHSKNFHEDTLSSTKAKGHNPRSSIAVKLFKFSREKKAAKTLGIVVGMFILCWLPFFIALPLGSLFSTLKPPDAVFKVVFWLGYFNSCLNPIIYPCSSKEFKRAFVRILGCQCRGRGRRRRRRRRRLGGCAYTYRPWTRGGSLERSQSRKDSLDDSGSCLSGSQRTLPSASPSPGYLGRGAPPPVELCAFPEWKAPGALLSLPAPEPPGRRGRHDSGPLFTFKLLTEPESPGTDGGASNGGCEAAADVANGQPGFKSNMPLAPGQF

[7] = molecular target: T3, Alpha-1B adrenergic receptor (Homo sapiens, UniProt P35368); experiment: Inhibition of adrenergic alpha1B receptor (unknown origin)
T3 sequence (P35368 whole entry): T2 sequence (whole entry)

MDR1 [8] = experiment: Permeability from apical to basolateral side in MDCK cells transfected with MDR1; type: ADME, cell-based, Canis lupus familiaris; conditions: dog, read-out: permeability
Rattus norvegicus [9] = experiment: Inhibition of quipazine-induced head twitches in po dosed rat head twitch model administered 25 mins prior to quipazine challenge measured after 30 mins; type: functional
Rattus norvegicus [10] = experiment: Toxicity in po dosed Sprague-Dawley rat assessed as effect on escape behaviour; type: organism-based; conditions: in vivo
[11] = Solubility of the compound in PBS buffer at pH 7.4; type: physicochemical
[12] = Lipophilicity, log D of the compound at pH 1.7; type: physicochemical; conditions: buffer
MDR1 [13] = experiment: in vitro; conditions: dog, MDCK-MDR1
Description: Efflux ratio of permeability from basolateral to apical side over apical to basolateral side indog MDCK cells expressing MDR1

[14] = Plasma protein binding in human; type: ADME, cell-free; conditions: read-out: PPB (converted)
Homo sapiens [15] = experiment: Toxicity in healthy human administered once daily; type: organism-based; conditions: in vivo
D(4) dopamine receptor = molecular target: T4, D(4) dopamine receptor (Homo sapiens, UniProt P21917)
T4 sequence (P21917 whole entry): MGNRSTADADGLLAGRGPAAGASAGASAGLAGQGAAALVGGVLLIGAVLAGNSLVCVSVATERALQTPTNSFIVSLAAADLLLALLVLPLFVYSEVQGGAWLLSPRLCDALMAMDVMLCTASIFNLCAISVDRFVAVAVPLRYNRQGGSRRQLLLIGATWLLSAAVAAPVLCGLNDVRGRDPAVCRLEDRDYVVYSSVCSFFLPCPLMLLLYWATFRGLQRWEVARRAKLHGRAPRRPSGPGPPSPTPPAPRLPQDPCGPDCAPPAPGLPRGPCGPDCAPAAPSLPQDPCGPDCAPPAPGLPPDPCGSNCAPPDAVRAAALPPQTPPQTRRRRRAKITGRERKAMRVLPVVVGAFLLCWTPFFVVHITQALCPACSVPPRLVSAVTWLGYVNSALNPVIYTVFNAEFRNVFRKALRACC
Description: Inhibition of human dopamine D4 receptor

Homo sapiens [16] = species on record: Homo sapiens; experiment: Effect on insomnia patient assessed as restoration of sleep architecture; type: functional, organism-based
[17] = molecular target: T5, 5-hydroxytryptamine receptor 1A (Homo sapiens) (UniProt P08908); experiment: Inhibition of human 5HT1A receptor at 100 nM
T5 sequence (whole entry): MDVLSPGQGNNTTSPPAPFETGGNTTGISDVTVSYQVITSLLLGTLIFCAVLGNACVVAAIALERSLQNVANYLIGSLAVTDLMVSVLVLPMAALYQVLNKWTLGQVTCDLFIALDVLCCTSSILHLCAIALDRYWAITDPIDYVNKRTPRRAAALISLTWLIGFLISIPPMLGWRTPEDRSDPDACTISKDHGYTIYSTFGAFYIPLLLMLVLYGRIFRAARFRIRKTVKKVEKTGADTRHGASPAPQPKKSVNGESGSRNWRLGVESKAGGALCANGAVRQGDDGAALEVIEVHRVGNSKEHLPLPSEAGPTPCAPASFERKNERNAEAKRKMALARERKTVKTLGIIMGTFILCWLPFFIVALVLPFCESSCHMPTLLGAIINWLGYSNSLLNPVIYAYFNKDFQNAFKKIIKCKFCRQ

Homo sapiens [18] = species on record: Homo sapiens; experiment: Effect on sleep maintenance insomnia patient assessed as reduction of waking after sleep onset
Homo sapiens [19] = experiment: Toxicity in schizophrenia patient administered once daily; type: organism-based; conditions: in vivo
[20] = molecular target: T6, Alpha-1A adrenergic receptor (Homo sapiens) (UniProt P35348); experiment: Inhibition of adrenergic alpha1A receptor (unknown origin) at 100 nM
T6 sequence (whole entry): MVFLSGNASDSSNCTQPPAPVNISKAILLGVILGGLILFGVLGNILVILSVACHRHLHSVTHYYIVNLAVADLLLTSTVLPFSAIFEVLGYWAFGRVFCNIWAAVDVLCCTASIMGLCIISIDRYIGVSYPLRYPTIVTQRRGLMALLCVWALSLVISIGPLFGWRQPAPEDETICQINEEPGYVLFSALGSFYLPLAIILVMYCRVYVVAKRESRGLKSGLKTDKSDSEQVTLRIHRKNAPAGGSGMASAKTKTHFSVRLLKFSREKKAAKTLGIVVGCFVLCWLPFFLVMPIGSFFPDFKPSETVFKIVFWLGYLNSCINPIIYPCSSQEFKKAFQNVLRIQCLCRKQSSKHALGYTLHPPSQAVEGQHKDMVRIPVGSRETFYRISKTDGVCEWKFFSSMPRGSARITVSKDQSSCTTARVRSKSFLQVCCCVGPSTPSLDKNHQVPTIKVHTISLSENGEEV

[21] = Lipophilicity, log D of the compound at pH 7.4; type: physicochemical; conditions: buffer
[22] = molecular target: T7, 5-hydroxytryptamine receptor 1A (Homo sapiens, UniProt P08908); experiment: Inhibition of human 5HT1A receptor
T7 sequence (P08908 whole entry): T5 sequence (whole entry)

Homo sapiens [23] = species on record: Homo sapiens; experiment: Antipsychotic activity in acute exacerbated schizophrenia patient; type: functional, organism-based
[24] = molecular target: T8, D(4) dopamine receptor (Homo sapiens) (UniProt P21917); conditions: 100 nM
T8 sequence (whole entry): T4 sequence (P21917 whole entry)
Description: Inhibition of human dopamine D4 receptor at 100 nM

Rattus norvegicus [25] = experiment: Toxicity in rat step-down latency model assessed as frank catalepsy at 30 mg/kg; type: organism-based; design: dose 30 mg/kg; conditions: in vivo
Homo sapiens [26] = species on record: Homo sapiens; experiment: Effect on sleep maintenance insomnia patient assessed as increase in slow wave sleep
Histamine H1 receptor = Histamine H1 receptor (Homo sapiens, UniProt P35367)
Description: Inhibition of histamine H1 receptor (unknown origin)

[27] = molecular target: D(2) dopamine receptor (Homo sapiens) (UniProt P14416); experiment: Antagonist activity at human recombinant dopamine D2 short receptor expressed in CHO cells assessed as inhibition of Eu-GTP binding at 10 uM; type: cell-based
[28] = molecular target: D(2) dopamine receptor (Homo sapiens) (UniProt P14416); experiment: Agonist activity at human recombinant dopamine D2 short receptor expressed in CHO cells up to 1 uM in absence of dopamine; type: cell-based
Rattus norvegicus [29] = experiment: Inhibition of conditioned avoidance response in Sprague-Dawley rat model at 2 mg/kg, po after 2 hrs by electric foot shock test; type: functional, organism-based; design: dose 2 mg/kg
[30] = molecular target: T9, Alpha-1A adrenergic receptor (Homo sapiens, UniProt P35348)
T9 sequence (P35348 whole entry): T6 sequence (whole entry)

[31] = Selectivity ratio of Ki for rat recombinant dopamine D2 short receptor to Ki for human recombinant full length 5HT2A receptor

Chain of D(2) dopamine receptor (P61169 whole entry): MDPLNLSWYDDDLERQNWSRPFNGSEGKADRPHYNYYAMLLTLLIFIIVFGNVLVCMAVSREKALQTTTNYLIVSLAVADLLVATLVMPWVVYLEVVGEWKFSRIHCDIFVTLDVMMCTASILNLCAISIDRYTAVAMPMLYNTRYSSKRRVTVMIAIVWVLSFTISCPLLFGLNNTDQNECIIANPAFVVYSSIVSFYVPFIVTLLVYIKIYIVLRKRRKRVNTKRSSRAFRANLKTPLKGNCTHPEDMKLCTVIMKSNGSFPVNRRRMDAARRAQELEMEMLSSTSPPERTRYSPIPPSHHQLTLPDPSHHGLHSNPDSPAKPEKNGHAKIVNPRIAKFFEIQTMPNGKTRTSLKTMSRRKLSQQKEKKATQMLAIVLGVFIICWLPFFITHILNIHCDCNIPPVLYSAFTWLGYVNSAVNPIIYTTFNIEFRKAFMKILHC
Chain of 5-hydroxytryptamine receptor 2A (P28223 whole entry): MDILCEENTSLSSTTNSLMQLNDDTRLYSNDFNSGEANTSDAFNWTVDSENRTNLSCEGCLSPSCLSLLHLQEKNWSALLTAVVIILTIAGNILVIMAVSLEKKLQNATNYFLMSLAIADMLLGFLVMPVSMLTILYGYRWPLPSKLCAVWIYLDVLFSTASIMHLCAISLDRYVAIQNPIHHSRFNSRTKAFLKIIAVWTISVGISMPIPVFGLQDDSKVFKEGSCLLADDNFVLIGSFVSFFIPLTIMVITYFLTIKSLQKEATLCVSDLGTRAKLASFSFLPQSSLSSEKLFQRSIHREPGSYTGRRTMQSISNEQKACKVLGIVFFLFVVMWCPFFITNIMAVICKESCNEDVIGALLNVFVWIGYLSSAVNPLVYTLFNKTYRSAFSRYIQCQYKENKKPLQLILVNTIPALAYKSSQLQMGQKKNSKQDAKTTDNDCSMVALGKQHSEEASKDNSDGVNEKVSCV
Chain of D(2) dopamine receptor (Homo sapiens) (P14416 whole entry): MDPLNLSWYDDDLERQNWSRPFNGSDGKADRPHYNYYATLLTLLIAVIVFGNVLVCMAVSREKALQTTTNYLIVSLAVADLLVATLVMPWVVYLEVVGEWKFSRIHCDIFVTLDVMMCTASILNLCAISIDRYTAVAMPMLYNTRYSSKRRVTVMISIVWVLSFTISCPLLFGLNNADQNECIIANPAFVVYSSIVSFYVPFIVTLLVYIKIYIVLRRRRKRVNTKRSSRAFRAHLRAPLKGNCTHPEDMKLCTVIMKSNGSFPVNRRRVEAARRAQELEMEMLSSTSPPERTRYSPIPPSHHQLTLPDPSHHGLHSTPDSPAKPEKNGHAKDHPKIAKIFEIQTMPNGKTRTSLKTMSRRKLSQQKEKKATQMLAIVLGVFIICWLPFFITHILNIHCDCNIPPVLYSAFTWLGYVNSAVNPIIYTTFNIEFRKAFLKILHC
Chain of Sodium-dependent serotonin transporter (P31645 whole entry, looked up): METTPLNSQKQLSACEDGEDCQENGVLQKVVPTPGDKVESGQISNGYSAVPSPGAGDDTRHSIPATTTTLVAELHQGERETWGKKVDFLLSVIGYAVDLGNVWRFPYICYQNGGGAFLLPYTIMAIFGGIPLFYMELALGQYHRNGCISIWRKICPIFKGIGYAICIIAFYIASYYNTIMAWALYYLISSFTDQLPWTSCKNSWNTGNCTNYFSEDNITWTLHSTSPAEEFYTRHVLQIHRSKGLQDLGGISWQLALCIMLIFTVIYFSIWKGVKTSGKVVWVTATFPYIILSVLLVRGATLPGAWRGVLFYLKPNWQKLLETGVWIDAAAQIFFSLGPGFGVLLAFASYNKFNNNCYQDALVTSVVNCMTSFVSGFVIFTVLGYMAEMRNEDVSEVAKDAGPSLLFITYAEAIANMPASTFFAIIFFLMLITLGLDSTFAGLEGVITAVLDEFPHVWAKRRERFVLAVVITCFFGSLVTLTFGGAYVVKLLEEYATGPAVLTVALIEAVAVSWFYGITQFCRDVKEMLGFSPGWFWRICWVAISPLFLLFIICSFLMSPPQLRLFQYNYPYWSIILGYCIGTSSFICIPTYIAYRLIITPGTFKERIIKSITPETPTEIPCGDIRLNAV
Chain of Histamine H1 receptor (P35367 whole entry): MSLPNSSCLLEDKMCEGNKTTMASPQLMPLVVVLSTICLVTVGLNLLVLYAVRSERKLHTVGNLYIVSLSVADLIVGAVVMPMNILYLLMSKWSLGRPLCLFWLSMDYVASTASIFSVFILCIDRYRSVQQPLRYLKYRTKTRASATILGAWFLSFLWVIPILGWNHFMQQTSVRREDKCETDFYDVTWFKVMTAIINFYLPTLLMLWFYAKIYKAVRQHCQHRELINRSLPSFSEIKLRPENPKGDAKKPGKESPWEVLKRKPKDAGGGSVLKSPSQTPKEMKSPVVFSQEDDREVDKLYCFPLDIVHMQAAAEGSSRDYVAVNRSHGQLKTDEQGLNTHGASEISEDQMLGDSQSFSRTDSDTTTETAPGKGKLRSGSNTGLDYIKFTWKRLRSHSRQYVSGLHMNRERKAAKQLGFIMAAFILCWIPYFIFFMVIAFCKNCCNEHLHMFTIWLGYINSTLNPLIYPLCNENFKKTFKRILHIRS
Chain of D(1A) dopamine receptor (Homo sapiens) (P21728 whole entry): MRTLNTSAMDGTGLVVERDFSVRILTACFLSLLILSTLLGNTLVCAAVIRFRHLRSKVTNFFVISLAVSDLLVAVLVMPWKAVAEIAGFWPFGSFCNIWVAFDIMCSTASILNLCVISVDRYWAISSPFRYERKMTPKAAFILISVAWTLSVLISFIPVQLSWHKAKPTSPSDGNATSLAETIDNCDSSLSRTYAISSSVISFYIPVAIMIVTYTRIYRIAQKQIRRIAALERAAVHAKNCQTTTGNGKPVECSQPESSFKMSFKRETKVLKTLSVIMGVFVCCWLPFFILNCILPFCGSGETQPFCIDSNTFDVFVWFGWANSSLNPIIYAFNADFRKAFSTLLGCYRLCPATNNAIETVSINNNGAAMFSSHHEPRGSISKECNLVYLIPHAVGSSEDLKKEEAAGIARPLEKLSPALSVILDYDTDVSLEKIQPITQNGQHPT

For CN1CCN2c3c(cccc31)[C@@H]1CN(CCCC(=O)N3CCC(F)(F)CC3)CC[C@@H]12, the Ki [1] was > 1 µM, the Ki (D(2) dopamine receptor) was > 1 µM and the Ki [2] was > 1 µM. For the same compound, the inhibition [3] was 3%.
In the case of CN1CCN2c3c(cccc31)[C@@H]1CN(CCCC(=O)c3ccc(F)cc3)CC[C@@H]12.Cc1ccc(S(=O)(=O)O)cc1 [LUMATEPERONE TOSYLATE], the ED50 (Rattus norvegicus [4]) is reported as 1.5 mg/kg, the inhibition [5] is reported as > 50% and the inhibition [6] is reported as > 50%. It also gave a Ki [7] of 0.031 µM, a Papp A→B (MDR1 [8]) of 15.8 ×10⁻⁶ cm/s and an ED50 (Rattus norvegicus [9]) of 0.12 mg/kg. For the same compound, the Activity (Rattus norvegicus [10]) was “Non-toxic”, the solubility [11] was 330 µg/mL and the logD [12] was 0.55. The efflux ratio (MDR1 [13]) was 1.3, the fraction unbound [14] was 0.026 and the Activity (Homo sapiens [15]) was “Non-toxic”. For the same compound, the Ki (D(4) dopamine receptor) was 0.108 µM, the Activity (Homo sapiens [16]) was “Active” and the inhibition [17] was > 50%. For the same compound, the Activity (Homo sapiens [18]) was “Active”, the Activity (Homo sapiens [19]) was “Non-toxic” and the inhibition [20] was > 50%. For the same compound, the logD [21] was 3.38, the Ki [22] was 1.48 µM and the Activity (Homo sapiens [23]) was “Active”. The inhibition [24] was > 50%, the Activity (Rattus norvegicus [25]) was “Non-toxic” and the Activity (Homo sapiens [26]) was “Active”. For the same compound, the Ki (Histamine H1 receptor) was > 1 µM, the inhibition [27] was 100% and the Activity [28] was 0%.
In the case of O=C(CCCN1CCC(O)(c2ccc(Cl)cc2)CC1)c1ccc(F)cc1 [HALOPERIDOL], the Activity (Rattus norvegicus [29]) is reported as “Active” and the Activity (Rattus norvegicus [25]) is reported as “Toxic”.
With CN1CCN2c3c(cccc31)[C@@H]1CN(CCCc3noc4ccccc34)CC[C@@H]12 the Ki [7] was 0.294 µM, the ED50 (Rattus norvegicus [9]) was 1 mg/kg and the Ki [1] was 0.0033 µM. It also gave a Ki (D(2) dopamine receptor) of 0.174 µM, a Ki [2] of 0.287 µM and a Ki [30] of 0.314 µM. For the same compound, the Ratio Ki [31] was 53.
Work on O=C(CCCN1CC[C@H]2[C@@H](C1)c1cccc3c1N2CCO3)c1ccc(F)cc1 yielded a Ki [7] of 0.104 µM, an ED50 (Rattus norvegicus [9]) of 0.25 mg/kg and a Ki [1] of 0.00089 µM. The Ki (D(2) dopamine receptor) was 0.041 µM, the Ki [2] was 0.52 µM and the Ki (D(4) dopamine receptor) was 0.32 µM. For the same compound, the Ki [30] was 0.262 µM, the Ki [22] was 1.33 µM and the Ratio Ki [31] was 46.
